Results as given in patent publication US20060148732A1, “Inhibition of NF-kappaB by triterpene compositions” (priority 2000, published 2006).

What was measured:
IκBα in Jurkat cells = assay: Western blot of IκBα degradation; assay type: cell-based, human; conditions: 2 μg/ml 16 hours, TNF 1 nM
Protocol: Western Blot Analysis. Cytoplasmic and nuclear extracts of Jurkat cells treated with monoterpene/triterpene glycoside G1 were used to study the degradation of IκB and nuclear translocation of the p65 subunit of NF-κB respectively. Then, 50 μg of the cytoplasmic or nuclear protein were resolved on a 9% SDS-polyacrylamide gel and electrotransferred onto a nitrocellulose membrane. The membranes were probed with rabbit anti-IκBα or rabbit anti-p65 antibody (Santa Cruz, Calif.) followed with anti-rabbit antibody conjugated to horseradish peroxidase (HRPO). Protein bands were detected by chemiluminescence (ECL, Amersham).

NF-κB = target: T1, NF-κB (Homo sapiens, UniProt P19838+Q04206); assay: In vitro NF-κB DNA binding (EMSA on extracts); assay type: biochemical
T1 construct: endogenous in cells; host or cells: Jurkat cells stimulated with TNF; nuclear extract
T1 sequence (Q04206 whole entry): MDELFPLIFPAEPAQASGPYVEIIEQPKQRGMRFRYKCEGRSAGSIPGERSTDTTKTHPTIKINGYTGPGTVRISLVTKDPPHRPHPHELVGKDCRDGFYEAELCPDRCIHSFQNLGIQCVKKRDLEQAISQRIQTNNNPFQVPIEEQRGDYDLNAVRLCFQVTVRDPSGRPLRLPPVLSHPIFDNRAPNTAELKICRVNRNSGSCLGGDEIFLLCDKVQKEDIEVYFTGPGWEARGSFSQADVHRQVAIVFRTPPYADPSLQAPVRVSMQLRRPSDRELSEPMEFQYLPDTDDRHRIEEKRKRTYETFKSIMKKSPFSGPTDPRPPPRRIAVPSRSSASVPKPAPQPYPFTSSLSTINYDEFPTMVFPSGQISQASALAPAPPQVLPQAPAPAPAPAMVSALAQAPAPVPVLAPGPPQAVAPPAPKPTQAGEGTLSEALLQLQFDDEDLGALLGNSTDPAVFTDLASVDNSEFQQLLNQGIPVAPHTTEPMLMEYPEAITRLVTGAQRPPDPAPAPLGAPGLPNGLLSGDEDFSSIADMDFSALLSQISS
T1 sequence (P19838 1-433 limits assumed): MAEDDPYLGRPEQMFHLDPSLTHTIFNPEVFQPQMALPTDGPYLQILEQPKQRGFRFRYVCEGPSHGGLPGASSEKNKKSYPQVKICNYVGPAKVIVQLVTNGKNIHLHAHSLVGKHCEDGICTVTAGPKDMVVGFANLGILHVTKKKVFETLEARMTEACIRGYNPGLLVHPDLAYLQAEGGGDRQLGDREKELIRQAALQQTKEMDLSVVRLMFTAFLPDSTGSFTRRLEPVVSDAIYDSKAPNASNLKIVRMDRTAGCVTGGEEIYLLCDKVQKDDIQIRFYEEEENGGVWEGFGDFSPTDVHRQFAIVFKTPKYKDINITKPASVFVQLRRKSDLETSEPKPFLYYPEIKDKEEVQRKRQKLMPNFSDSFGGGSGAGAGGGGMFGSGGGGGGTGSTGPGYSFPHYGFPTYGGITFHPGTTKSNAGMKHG
Protocol: (underline indicates NF-κB binding sites) for 15 min at 37° C. The incubation mixture included 3 μg of poly (dI:dC) in a binding buffer (25 mM HEPES, pH 7.9, 0.5 mM EDTA, 0.5 mM DTT, 1% NP-40, 5% glycerol, 50 mM NaCl). The DNA-protein complex was separated from the free oligonucleotide on a 7.5% polyacrylamide gel. The specificity of NF-κB-DNA binding was examined by competition with a double stranded mutated oligonucleotide, unlabeled oligonucleotide and by supershift of the band by anti-p65 antibody. The radioactive bands from dried gels were visualized on a PhosphoImager (Molecular Dynamics, Sunnyvale, Calif.) and quantitated using ImageQuant Software.
Monoterpene/triterpene glycoside G Inhibits NF-κB-DNA Binding. […] Therefore, the inventors analyzed the effect of monoterpene/triterpene glycoside G1 on the ability of active NF-κB to bind to DNA in a cell-free system. Nuclear extracts from TNF-stimulated cells were incubated with increasing concentrations of monoterpene/triterpene glycoside G1. […] Deoxycholate (DOC) is known to dissociate NF-κB from IκB, thereby making it available in an active nuclear form.

- DNA binding of DOC (0.8%) activated NF-κB (NF-κB; cytoplasmic extracts of treated cells): decreased DNA binding
Structure (SMILES): C=C[C@](C)(O)CC/C=C(\C)C(=O)O[C@H]1[C@H](O)[C@@H](O)[C@H](O[C@@](C)(C=C)CC/C=C(\CO)C(=O)O[C@H]2C[C@]3(C(=O)O[C@@H]4O[C@H](CO)[C@@H](O)[C@H](O)[C@H]4O[C@@H]4O[C@@H](C)[C@H](O[C@@H]5O[C@@H](CO)[C@H](O)[C@H]5O)[C@@H](O[C@@H]5O[C@H](CO)[C@@H](O)[C@H](O)[C@H]5O)[C@H]4O)[C@H](O)C[C@]4(C)C(=CC[C@@H]5[C@@]6(C)CC[C@H](O[C@@H]7O[C@H](CO[C@@H]8O[C@H](C)[C@H](O)[C@H](O)[C@H]8O[C@@H]8OC[C@@H](O)[C@H](O)[C@H]8O)[C@@H](O)[C@H](O)[C@H]7NC(C)=O)C(C)(C)[C@@H]6CC[C@]54C)[C@@H]3CC2(C)C)O[C@@H]1C [Fraction G1]
- pattern of IκB degradation (IκBα in Jurkat cells): no difference
- binding of NF-κB to DNA (NF-κB; nuclear extracts from TNF-stimulated cells, 30 min at 37° C.): inhibited the binding of NF-κB to DNA in a dose-dependent manner
